From ChEMBL document CHEMBL4811240, “Discovery of N-substituted sulfamoylbenzamide derivatives as novel inhibitors of STAT3 signaling pathway based on Niclosamide” (Eur J Med Chem, 2021)
The source made the active and inactive calls. The calls are words filed in the database; no cut-off is given here.

What was measured:
[1] = Toxicity in BALB/c nude mouse xenografted with human MDA-MB-231 cells assessed as effect on body weight at 30 mg/kg, ig administered every two days; format: organism-based; details: in vivo, po
[2] = target: Epidermal growth factor receptor (Homo sapiens) (UniProt P00533); test: Inhibition of wild-type EGFR (669 to 1210 residues) (unknown origin) expressed in Sf21 cells at 10 uM preincubated for 10 mins followed by peptide substrate addition relative to control
[3] = target: Signal transducer and activator of transcription 3 (Homo sapiens) (UniProt P40763); test: Inhibition of STAT3 promoter activity in human MDA-MB-231 cells at 1 uM incubated for 24 hrs by dual luciferase reporter assay; format: cell-based
Sequence of Signal transducer and activator of transcription 3 (Homo sapiens) (P40763 whole entry, the tested form may be a part): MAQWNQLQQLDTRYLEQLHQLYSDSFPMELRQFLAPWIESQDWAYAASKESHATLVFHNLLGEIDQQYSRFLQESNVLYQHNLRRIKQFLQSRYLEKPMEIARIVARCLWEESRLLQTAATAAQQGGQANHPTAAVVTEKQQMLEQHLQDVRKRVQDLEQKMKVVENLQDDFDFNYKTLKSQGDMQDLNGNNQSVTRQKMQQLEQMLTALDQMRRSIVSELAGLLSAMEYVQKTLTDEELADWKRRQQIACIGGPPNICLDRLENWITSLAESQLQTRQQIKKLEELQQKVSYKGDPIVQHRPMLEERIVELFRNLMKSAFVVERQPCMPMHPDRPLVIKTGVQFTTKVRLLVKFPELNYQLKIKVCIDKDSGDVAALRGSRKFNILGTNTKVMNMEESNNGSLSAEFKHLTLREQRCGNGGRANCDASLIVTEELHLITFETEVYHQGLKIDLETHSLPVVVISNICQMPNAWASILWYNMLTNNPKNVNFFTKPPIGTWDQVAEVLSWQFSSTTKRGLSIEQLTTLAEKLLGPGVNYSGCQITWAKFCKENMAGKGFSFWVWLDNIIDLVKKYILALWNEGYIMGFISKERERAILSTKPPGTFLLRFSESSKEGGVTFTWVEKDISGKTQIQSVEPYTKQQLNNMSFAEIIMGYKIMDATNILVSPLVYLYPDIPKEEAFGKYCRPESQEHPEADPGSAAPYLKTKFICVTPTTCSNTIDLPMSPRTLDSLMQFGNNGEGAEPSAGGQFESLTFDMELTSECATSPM

MDA-MB-231 [4] = test: Induction of apoptosis in human MDA-MB-231 cells assessed as increase in cleaved PARP expression at 1 to 10 uM incubated for 24 hrs by Western blot analysis; format: functional, cell-based; details: dose 1-10 µM
[5] = target: Mitogen-activated protein kinase 3 (Homo sapiens) (UniProt P27361); test: Inhibition of N-terminal GST-tagged full length ERK1 (1 to 379 residues) (unknown origin) expressed in Escherichia coli at 10 uM preincubated for 10 mins followed by peptide substrate addition relative to control
MDA-MB-231 [6] = test: Inhibition of human MDA-MB-231 cells migration after 24 hrs by crystal violet staining based transwell migration assay; format: functional, cell-based; details: dose 0.1-1 µM
[7] = target: Tyrosine-protein kinase JAK1 (Homo sapiens) (UniProt P23458); test: Inhibition of JAK1 (850 to 1154 residues) (unknown origin) expressed in Sf21 cells at 10 uM preincubated for 10 mins followed by peptide substrate addition relative to control
Sequence of Tyrosine-protein kinase JAK1 (Homo sapiens) (P23458 whole entry, the tested form may be a part): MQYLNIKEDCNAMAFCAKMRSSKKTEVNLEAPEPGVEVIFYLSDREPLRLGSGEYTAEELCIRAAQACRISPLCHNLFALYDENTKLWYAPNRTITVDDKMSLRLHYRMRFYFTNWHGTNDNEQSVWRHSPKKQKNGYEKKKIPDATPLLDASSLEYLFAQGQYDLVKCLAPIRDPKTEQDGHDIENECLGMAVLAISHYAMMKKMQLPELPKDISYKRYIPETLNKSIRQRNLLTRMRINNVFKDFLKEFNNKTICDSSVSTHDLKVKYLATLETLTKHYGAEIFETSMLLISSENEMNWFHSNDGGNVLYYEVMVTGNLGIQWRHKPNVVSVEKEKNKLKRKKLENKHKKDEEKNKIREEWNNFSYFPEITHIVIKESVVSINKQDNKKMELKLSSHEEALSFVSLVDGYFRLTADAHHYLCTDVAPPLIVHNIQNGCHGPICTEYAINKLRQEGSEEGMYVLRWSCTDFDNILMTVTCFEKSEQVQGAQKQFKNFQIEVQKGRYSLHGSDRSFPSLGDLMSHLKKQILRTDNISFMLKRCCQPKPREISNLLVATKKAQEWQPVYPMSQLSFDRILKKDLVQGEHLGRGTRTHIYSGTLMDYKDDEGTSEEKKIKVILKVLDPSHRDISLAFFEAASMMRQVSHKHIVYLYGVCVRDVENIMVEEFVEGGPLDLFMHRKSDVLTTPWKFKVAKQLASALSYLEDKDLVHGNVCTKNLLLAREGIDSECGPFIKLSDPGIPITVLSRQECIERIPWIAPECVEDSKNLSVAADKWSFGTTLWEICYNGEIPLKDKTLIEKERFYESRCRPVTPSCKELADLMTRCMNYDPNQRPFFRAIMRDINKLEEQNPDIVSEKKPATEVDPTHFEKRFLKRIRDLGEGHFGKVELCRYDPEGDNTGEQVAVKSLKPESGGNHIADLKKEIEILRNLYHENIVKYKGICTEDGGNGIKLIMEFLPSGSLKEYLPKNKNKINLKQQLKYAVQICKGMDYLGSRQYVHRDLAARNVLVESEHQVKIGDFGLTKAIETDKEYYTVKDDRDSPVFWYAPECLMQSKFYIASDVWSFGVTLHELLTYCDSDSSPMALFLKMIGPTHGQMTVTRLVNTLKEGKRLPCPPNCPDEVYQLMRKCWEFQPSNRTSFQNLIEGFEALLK

MDA-MB-231 [8] = test: Induction of apoptosis in human MDA-MB-231 cells assessed as apoptotic cells at 2.5 uM measured after 24 hrs by annexinV-FITC/propidium iodide staining based flow cytometry analysis (reference value: 2.49%); format: functional
[9] = target: Signal transducer and activator of transcription 3 (Homo sapiens) (UniProt P40763); test: Inhibition of STAT3 promoter activity in human MDA-MB-231 cells at 0.1 uM incubated for 24 hrs by dual luciferase reporter assay; format: cell-based
[10] = target: Signal transducer and activator of transcription 3 (Homo sapiens) (UniProt P40763); test: Inhibition of IL-6 induced STAT3 phosphorylation in human MDA-MB-231 cells at 5 uM incubated for 2 hrs by Western blotting analysis; format: cell-based
[11] = target: Hepatocyte growth factor receptor (Homo sapiens) (UniProt P08581); test: Inhibition of MET (956 to 1390 residues) (unknown origin) expressed in Sf21 cells at 10 uM preincubated for 10 mins followed by peptide substrate addition relative to control
Sequence of Hepatocyte growth factor receptor (Homo sapiens) (P08581 whole entry, the tested form may be a part): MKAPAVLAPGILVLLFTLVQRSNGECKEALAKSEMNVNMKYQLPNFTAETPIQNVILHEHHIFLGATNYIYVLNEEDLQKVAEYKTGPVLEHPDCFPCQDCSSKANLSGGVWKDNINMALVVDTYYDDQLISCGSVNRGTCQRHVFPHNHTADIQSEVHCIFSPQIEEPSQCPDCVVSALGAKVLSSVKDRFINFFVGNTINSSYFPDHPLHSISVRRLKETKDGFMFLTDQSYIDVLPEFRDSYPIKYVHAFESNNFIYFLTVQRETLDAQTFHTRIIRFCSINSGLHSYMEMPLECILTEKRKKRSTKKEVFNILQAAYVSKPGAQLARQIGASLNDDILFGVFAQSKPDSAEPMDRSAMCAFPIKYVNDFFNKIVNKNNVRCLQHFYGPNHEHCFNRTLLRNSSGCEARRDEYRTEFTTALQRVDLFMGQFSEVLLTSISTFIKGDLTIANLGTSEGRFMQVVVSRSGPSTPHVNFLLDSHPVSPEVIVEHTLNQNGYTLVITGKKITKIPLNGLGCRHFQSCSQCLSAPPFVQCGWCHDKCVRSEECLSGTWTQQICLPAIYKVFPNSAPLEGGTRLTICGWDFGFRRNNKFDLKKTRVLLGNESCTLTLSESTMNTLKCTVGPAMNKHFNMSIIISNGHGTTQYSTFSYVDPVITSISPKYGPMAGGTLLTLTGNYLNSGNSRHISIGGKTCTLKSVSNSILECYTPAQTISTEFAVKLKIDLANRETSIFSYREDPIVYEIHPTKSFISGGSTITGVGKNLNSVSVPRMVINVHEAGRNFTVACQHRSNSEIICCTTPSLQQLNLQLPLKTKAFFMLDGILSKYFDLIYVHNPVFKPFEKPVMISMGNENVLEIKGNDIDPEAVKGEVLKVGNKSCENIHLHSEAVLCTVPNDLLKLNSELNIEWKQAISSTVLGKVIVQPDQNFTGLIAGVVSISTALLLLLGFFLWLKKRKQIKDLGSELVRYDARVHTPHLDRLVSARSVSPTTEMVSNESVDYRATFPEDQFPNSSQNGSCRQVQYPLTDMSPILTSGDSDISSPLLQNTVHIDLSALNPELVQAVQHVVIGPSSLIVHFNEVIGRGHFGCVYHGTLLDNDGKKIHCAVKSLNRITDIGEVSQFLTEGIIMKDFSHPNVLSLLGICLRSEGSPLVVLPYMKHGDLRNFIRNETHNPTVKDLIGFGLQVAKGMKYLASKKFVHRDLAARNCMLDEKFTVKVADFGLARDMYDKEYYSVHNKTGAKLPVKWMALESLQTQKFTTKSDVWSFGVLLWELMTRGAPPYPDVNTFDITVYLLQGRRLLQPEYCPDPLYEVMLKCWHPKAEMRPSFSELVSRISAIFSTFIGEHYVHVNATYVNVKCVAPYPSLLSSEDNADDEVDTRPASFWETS

[12] = target: Signal transducer and activator of transcription 1-alpha/beta (Homo sapiens) (UniProt P42224); test: Inhibition of IL-6 induced STAT1 phosphorylation in human MDA-MB-231 cells at 1 to 10 uM preincubated for 2 hrs followed by IL-6 stimulation and measured after 45 mins by Western blotting analysis; format: cell-based; details: dose 1-10 µM, time 165.0 min
MDA-MB-231 [13] = test: Induction of apoptosis in human MDA-MB-231 cells assessed as increase in cleaved caspase 3 expression at 1 to 10 uM incubated for 24 hrs by Western blot analysis; format: functional, cell-based; details: dose 1-10 µM
HCT-116 = test: Antiproliferative activity against human HCT116 cells assessed as inhibition of cell viability at 10 uM after 48 hrs by MTT assay relative to control; format: functional
[14] = target: Tyrosine-protein kinase JAK2 (Homo sapiens) (UniProt O60674); test: Inhibition of JAK2 (826 to 1132 residues) (unknown origin) expressed in Sf21 cells at 10 uM preincubated for 10 mins followed by peptide substrate addition relative to control
[15] = target: Tyrosine-protein kinase JAK3 (Homo sapiens) (UniProt P52333); test: Inhibition of N-terminal His-tagged JAK3 (795 to 1124 residues) (unknown origin) expressed in Sf21 cells at 10 uM preincubated for 10 mins followed by peptide substrate addition relative to control
Sequence of Tyrosine-protein kinase JAK3 (Homo sapiens) (P52333 whole entry, the tested form may be a part): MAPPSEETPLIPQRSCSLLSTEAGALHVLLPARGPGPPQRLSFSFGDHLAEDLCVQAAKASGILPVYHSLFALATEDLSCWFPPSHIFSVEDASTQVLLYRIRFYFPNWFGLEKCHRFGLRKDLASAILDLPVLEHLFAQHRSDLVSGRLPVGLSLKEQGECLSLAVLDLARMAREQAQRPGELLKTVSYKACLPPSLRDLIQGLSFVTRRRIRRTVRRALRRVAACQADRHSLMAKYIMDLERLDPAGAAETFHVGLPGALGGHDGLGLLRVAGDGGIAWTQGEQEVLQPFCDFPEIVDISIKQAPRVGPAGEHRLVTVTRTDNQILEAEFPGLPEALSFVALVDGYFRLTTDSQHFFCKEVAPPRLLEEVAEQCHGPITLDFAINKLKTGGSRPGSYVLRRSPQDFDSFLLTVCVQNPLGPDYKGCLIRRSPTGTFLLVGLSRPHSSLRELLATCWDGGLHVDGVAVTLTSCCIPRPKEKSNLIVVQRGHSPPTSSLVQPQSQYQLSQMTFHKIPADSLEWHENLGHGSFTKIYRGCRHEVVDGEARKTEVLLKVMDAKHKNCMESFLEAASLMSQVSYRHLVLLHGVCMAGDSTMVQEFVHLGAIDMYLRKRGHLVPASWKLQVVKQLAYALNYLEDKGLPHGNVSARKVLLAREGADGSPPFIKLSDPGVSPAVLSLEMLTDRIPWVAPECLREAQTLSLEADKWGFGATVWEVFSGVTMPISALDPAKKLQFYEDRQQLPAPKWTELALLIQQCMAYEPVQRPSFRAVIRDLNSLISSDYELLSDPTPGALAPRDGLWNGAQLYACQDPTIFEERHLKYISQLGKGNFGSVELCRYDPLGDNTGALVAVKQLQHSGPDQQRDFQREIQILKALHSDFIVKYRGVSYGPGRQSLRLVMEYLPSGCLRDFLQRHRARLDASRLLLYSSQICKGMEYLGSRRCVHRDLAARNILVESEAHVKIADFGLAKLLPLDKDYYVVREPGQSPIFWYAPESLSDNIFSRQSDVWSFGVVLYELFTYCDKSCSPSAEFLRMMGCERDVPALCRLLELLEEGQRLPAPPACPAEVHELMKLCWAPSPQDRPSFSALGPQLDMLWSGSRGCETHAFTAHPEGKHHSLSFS

MDA-MB-231 [16] = test: Antitumor activity against human MDA-MB-231 cells xenografted in BALB/c nude mouse assessed as the inhibition of tumor growth at 30 mg/kg, ig administered every two days; format: functional, organism-based
MDA-MB-231 [17] = test: Antiproliferative activity against human MDA-MB-231 cells assessed as inhibition of cell viability at 10 uM after 48 hrs by MTT assay relative to control; format: functional
[18] = target: Insulin-like growth factor 1 receptor (Homo sapiens) (UniProt P08069); test: Inhibition of IGF1R (959 to 1367 residues) (unknown origin) expressed in Sf21 cells at 10 uM preincubated for 10 mins followed by peptide substrate addition relative to control
MDA-MB-231 [19] = test: Induction of apoptosis in human MDA-MB-231 cells assessed as apoptotic cells at 10 uM measured after 24 hrs by annexinV-FITC/propidium iodide staining based flow cytometry analysis (reference value: 2.49%); format: functional
MDA-MB-231 [20] = test: Induction of apoptosis in human MDA-MB-231 cells assessed as apoptotic cells at 5 uM measured after 24 hrs by annexinV-FITC/propidium iodide staining based flow cytometry analysis (reference value: 2.49%); format: functional
MDA-MB-231 [21] = test: Induction of apoptosis in human MDA-MB-231 cells assessed as apoptotic cells at 1 uM measured after 24 hrs by annexinV-FITC/propidium iodide staining based flow cytometry analysis (reference value: 2.49%); format: functional
[22] = target: Fibroblast growth factor receptor 1 (Homo sapiens) (UniProt P11362); test: Inhibition of FGFR1 (398 to 822 residues) (unknown origin) expressed in Sf21 cells at 10 uM preincubated for 10 mins followed by peptide substrate addition relative to control
[23] = target: Proto-oncogene tyrosine-protein kinase receptor Ret (Homo sapiens) (UniProt P07949); test: Inhibition of RET (658 to 1114 residues) (unknown origin) expressed in Sf21 at 10 uM preincubated for 10 mins followed by peptide substrate addition relative to control
[24] = target: Vascular endothelial growth factor receptor 1 (Homo sapiens) (UniProt P17948); test: Inhibition of recombinant human GST-tagged FLT1 (781 to 1338 residues) expressed in baculovirus expression system at 10 uM preincubated for 10 mins followed by peptide substrate addition relative to control
SW480 = test: Antiproliferative activity against human SW480 cells assessed as inhibition of cell viability at 10 uM after 48 hrs by MTT assay relative to control; format: functional
[25] = target: Mast/stem cell growth factor receptor Kit (Homo sapiens) (UniProt P10721); test: Inhibition of c-KIT (544 to 976 residues) (unknown origin) expressed in Sf21 cells at 10 uM preincubated for 10 mins followed by peptide substrate addition relative to control
[26] = target: Serine/threonine-protein kinase PAK 1 (Homo sapiens) (UniProt Q13153); test: Inhibition of full length N-terminal GST-tagged PAK1 (1 to 545 residues) (unknown origin) expressed in Sf21 at 10 uM preincubated for 10 mins followed by peptide substrate addition relative to control
Sequence of Serine/threonine-protein kinase PAK 1 (Homo sapiens) (Q13153 whole entry, looked up, the tested form may be a part): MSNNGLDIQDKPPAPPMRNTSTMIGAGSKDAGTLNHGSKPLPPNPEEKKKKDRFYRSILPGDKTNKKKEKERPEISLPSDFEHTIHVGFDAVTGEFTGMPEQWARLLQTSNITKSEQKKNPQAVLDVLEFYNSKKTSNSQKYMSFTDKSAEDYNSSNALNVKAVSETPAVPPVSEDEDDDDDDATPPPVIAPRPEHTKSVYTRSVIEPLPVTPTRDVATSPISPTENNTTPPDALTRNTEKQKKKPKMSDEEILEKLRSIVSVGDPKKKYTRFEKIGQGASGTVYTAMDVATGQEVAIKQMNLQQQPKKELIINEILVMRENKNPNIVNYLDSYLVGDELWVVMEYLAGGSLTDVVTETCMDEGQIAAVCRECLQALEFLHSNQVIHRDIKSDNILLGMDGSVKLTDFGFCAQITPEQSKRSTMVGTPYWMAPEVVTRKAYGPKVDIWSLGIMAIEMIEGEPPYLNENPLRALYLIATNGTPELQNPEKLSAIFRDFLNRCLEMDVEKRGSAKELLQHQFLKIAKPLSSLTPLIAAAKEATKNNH

MDA-MB-231 [27] = test: Induction of apoptosis in human MDA-MB-231 cells assessed as decrease in Bcl-xl expression at 1 to 10 uM incubated for 24 hrs by Western blot analysis; format: functional, cell-based; details: dose 1-10 µM

## CC(C)(C)OC(=O)c1ccc(NC(=O)c2ccc(Cl)c(S(N)(=O)=O)c2)cc1
[1]
  Activity: Non-Toxic
[2]
  inhibition: 4.41%
[3]
  inhibition: 87.9%
MDA-MB-231 [4]
  Activity: Active
[5]
  inhibition: 1.72%
MDA-MB-231 [6]
  inhibition: Dose-Dependent Effect
[7]
  inhibition: 2.99%
MDA-MB-231 [8]
  Activity: 16.01%
[9]
  inhibition: 24.7%
[10]
  inhibition: 100%
[11]
  inhibition: 0.13%
[12]
  inhibition: inactive
MDA-MB-231 [13]
  Activity: Active
HCT-116
  inhibition at 10 µM: 85.3%
[14]
  inhibition: 4.77%
[15]
  inhibition: 4.24%
MDA-MB-231 [16]
  Activity: Active
MDA-MB-231 [17]
  inhibition at 10 µM: 93%
[18]
  inhibition: 2.93%
MDA-MB-231 [19]
  Activity: 25.63%
MDA-MB-231 [20]
  Activity: 23.14%
MDA-MB-231 [21]
  Activity: 6.75%
[22]
  inhibition: 3.58%
[23]
  inhibition: -7.23%
[24]
  inhibition: 4.33%
SW480
  inhibition at 10 µM: 80.9%
[25]
  inhibition: 3.33%
[26]
  inhibition: 9.32%
MDA-MB-231 [27]
  Activity: Active
